Measurements as given in patent US12565522B2, “Micropeptide HMMW and application thereof” (NANJING ANJI BIOTECHNOLOGY CO., LTD., priority 2019, dated 2026).
No end group written: not given here.

Legend:
Assay type in all cases: cell-based, human
Conditions in all cases: 24 h
[1] = test system: MGC803 cells of stomach cancer; assay: transwell migration test
Experimental: (§1) Inoculate SCC4 cells of head and neck cancer, SW579 cells of thyroid cancer, A549 cells of lung cancer, TE13 cells of esophageal squamous cell carcinoma, MGC803 cells of stomach cancer, MDA-MB-231 cells of breast cancer, UOK262 cells of kidney cancer, and A431 cells of skin cancer of human to transwell cells, 100 μL per well, and meanwhile add micropeptides HMMW I to IX at different doses to every cell. Add 0.6 mL of complete medium containing 10% FBS to the transwell cells to stimulate cell migration, and culture in 5% CO2 at 37 DEG C. for 24 h. Discard the medium in the wells, fix with 90% alcohol at room temperature for 30 min, stain with 0.1% crystal violet at room temperature for 10 min, rinse with clear water, gently wipe off the non-migrated cells in the upper layer with a cotton swab, observe under a microscope and select four fields of view to take pictures and count. Calculate the migration inhibition rate (MIR) of the cells according to the following formula: […]
(§2) The test was repeated independently three times. Mean±SD was calculated based on the test results. Statistical t test was done. Here, “the test was repeated independently three times” means that every dose of any type of cells was tested repeatedly three times, and then the above formula was used to calculate the number of migrated cells (Mean±SD). Value P was used to express statistical difference. The statistical significance of the results is a method for estimating how true the results are (the totality can be represented), *P<0.05 means significant difference, and **P<0.01 means very significant difference.

[2] = test system: TE13 cells of esophageal squamous cell carcinoma; assay: transwell migration test
Experimental: as §1, §2

[3] = test system: SW579 cells of thyroid cancer; assay: transwell migration test
Experimental: as §1, §2

[4] = test system: SCC4 cells of head and neck cancer; assay: transwell migration test
Experimental: as §1, §2

[5] = test system: A549 cells of lung cancer; assay: transwell migration test
Experimental: as §1, §2

[6] = test system: UOK262 cells of kidney cancer; assay: transwell migration test
Experimental: as §1, §2

[7] = test system: MDA-MB-231 cells of breast cancer; assay: transwell migration test
Experimental: as §1, §2

[8] = test system: A431 cells of skin cancer; assay: transwell migration test
Experimental: as §1, §2

[9] = test system: MGC803 cells of stomach cancer; assay: Matrigel transwell invasion test
Experimental: (§3) Dilute 10 mg/mL Matrigel with culture medium at 1:3, spread it on membranes of transwell cells and dry it in the air at room temperature. Use trypsin to digest and collect SCC4 cells of head and neck cancer, SW579 cells of thyroid cancer, A549 cells of lung cancer, TE13 cells of esophageal squamous cell carcinoma, MGC803 cells of stomach cancer, MDA-MB-231 cells of breast cancer, UOK262 cells of kidney cancer, and A431 cells of skin cancer of human, which were cultured to the logarithmic phase, wash with PBS twice and re-suspend with a blank culture medium. Adjust cell concentration to 1×10^5 cells/mL. Inoculate the cells to transwell cells, 100 μL per well, and meanwhile add micropeptides HMMW I to IX at different doses to every cell. Add 0.6 mL of complete medium containing 10% FBS to the transwell cells to stimulate cell invasion, and culture in 5% CO2 at 37 DEG C. for 24 h. Discard the medium in the wells, fix with 90% alcohol at room temperature for 30 min, stain with 0.1% crystal violet at room temperature for 10 min, rinse with clear water, gently wipe off the non-invaded cells in the upper layer with a cotton swab, observe under a microscope and select four fields of view to take pictures and count. Calculate the invasion inhibition rate (IIR) of the cells according to the following formula:
(§4) [formula] where Ntest is the number of invaded cells in the test groups (the groups at a dose of 1, 4 or 16 μM in the table), Ncontrol is the number of invaded cells in the blank control groups (the groups at a dose of 0 μM in the table). The test was repeated independently three times. Mean±SD was calculated based on the test results. Statistical t test was done. Value P was used to express statistical difference. The statistical significance of the results is a method for estimating how true the results are (the totality can be represented), *P<0.05 means significant difference, and **P<0.01 means very significant difference.

[10] = test system: TE13 cells of esophageal squamous cell carcinoma; assay: Matrigel transwell invasion test
Experimental: as §3, §4

[11] = test system: SW579 cells of thyroid cancer; assay: Matrigel transwell invasion test
Experimental: as §3, §4

[12] = test system: SCC4 cells of head and neck cancer; assay: Matrigel transwell invasion test
Experimental: as §3, §4

[13] = test system: A549 cells of lung cancer; assay: Matrigel transwell invasion test
Experimental: as §3, §4

[14] = test system: UOK262 cells of kidney cancer; assay: Matrigel transwell invasion test
Experimental: as §3, §4

[15] = test system: MDA-MB-231 cells of breast cancer; assay: Matrigel transwell invasion test
Experimental: as §3, §4

[16] = test system: A431 cells of skin cancer; assay: Matrigel transwell invasion test
Experimental: as §3, §4

## MERAGVPGFSPRRSSVEAKMQSTSCSVRKSSTVTAWPAVVLLLHTSKDDEE-OH [HMMW-II]
[1]; dose 1 μM
  migration inhibition rate: 25.64%
[1]; dose 4 μM
  migration inhibition rate: 52.41%
[1]; dose 16 μM
  migration inhibition rate: 73.82%
[2]; dose 1 μM
  migration inhibition rate: 22.74%
[2]; dose 4 μM
  migration inhibition rate: 40.23%
[2]; dose 16 μM
  migration inhibition rate: 65.31%
[3]; dose 1 μM
  migration inhibition rate: 18.80%
[3]; dose 4 μM
  migration inhibition rate: 50.13%
[3]; dose 16 μM
  migration inhibition rate: 71.92%
[4]; dose 1 μM
  migration inhibition rate: 18.81%
[4]; dose 4 μM
  migration inhibition rate: 43.67%
[4]; dose 16 μM
  migration inhibition rate: 75.04%
[5]; dose 1 μM
  migration inhibition rate: 34.01%
[5]; dose 4 μM
  migration inhibition rate: 52.91%
[5]; dose 16 μM
  migration inhibition rate: 72.36%
[6]; dose 1 μM
  migration inhibition rate: 16.29%
[6]; dose 4 μM
  migration inhibition rate: 41.28%
[6]; dose 16 μM
  migration inhibition rate: 70.43%
[7]; dose 1 μM
  migration inhibition rate: 27.07%
[7]; dose 4 μM
  migration inhibition rate: 51.24%
[7]; dose 16 μM
  migration inhibition rate: 73.18%
[8]; dose 1 μM
  migration inhibition rate: 31.14%
[8]; dose 4 μM
  migration inhibition rate: 53.12%
[8]; dose 16 μM
  migration inhibition rate: 71.12%
[9]; dose 1 μM
  invasion inhibition rate: 27.52%
[9]; dose 4 μM
  invasion inhibition rate: 51.04%
[9]; dose 16 μM
  invasion inhibition rate: 66.51%
[10]; dose 1 μM
  invasion inhibition rate: 21.41%
[10]; dose 4 μM
  invasion inhibition rate: 43.46%
[10]; dose 16 μM
  invasion inhibition rate: 64.56%
[11]; dose 1 μM
  invasion inhibition rate: 22.13%
[11]; dose 4 μM
  invasion inhibition rate: 45.78%
[11]; dose 16 μM
  invasion inhibition rate: 66.73%
[12]; dose 1 μM
  invasion inhibition rate: 21.72%
[12]; dose 4 μM
  invasion inhibition rate: 45.14%
[12]; dose 16 μM
  invasion inhibition rate: 73.80%
[13]; dose 1 μM
  invasion inhibition rate: 33.25%
[13]; dose 4 μM
  invasion inhibition rate: 55.12%
[13]; dose 16 μM
  invasion inhibition rate: 65.09%
[14]; dose 1 μM
  invasion inhibition rate: 34.70%
[14]; dose 4 μM
  invasion inhibition rate: 54.16%
[14]; dose 16 μM
  invasion inhibition rate: 65.64%
[15]; dose 1 μM
  invasion inhibition rate: 25.93%
[15]; dose 4 μM
  invasion inhibition rate: 47.75%
[15]; dose 16 μM
  invasion inhibition rate: 71.52%
[16]; dose 1 μM
  invasion inhibition rate: 31.71%
[16]; dose 4 μM
  invasion inhibition rate: 53.41%
[16]; dose 16 μM
  invasion inhibition rate: 68.25%

## MERAGVPGFSPRRSSVEAKMQSTSCSVRKSSTVTAWPAVVLLLSWGKDDEE-OH [HMMW-IV]
[1]; dose 1 μM
  migration inhibition rate: 25.60%
[1]; dose 4 μM
  migration inhibition rate: 52.45%
[1]; dose 16 μM
  migration inhibition rate: 74.80%
[2]; dose 1 μM
  migration inhibition rate: 22.76%
[2]; dose 4 μM
  migration inhibition rate: 41.29%
[2]; dose 16 μM
  migration inhibition rate: 65.32%
[3]; dose 1 μM
  migration inhibition rate: 18.81%
[3]; dose 4 μM
  migration inhibition rate: 50.03%
[3]; dose 16 μM
  migration inhibition rate: 71.91%
[4]; dose 1 μM
  migration inhibition rate: 16.84%
[4]; dose 4 μM
  migration inhibition rate: 43.91%
[4]; dose 16 μM
  migration inhibition rate: 75.04%
[5]; dose 1 μM
  migration inhibition rate: 33.00%
[5]; dose 4 μM
  migration inhibition rate: 52.91%
[5]; dose 16 μM
  migration inhibition rate: 71.46%
[6]; dose 1 μM
  migration inhibition rate: 16.32%
[6]; dose 4 μM
  migration inhibition rate: 41.38%
[6]; dose 16 μM
  migration inhibition rate: 70.47%
[7]; dose 1 μM
  migration inhibition rate: 29.06%
[7]; dose 4 μM
  migration inhibition rate: 51.34%
[7]; dose 16 μM
  migration inhibition rate: 73.38%
[8]; dose 1 μM
  migration inhibition rate: 32.19%
[8]; dose 4 μM
  migration inhibition rate: 54.17%
[8]; dose 16 μM
  migration inhibition rate: 71.24%
[9]; dose 1 μM
  invasion inhibition rate: 23.50%
[9]; dose 4 μM
  invasion inhibition rate: 54.21%
[9]; dose 16 μM
  invasion inhibition rate: 63.49%
[10]; dose 1 μM
  invasion inhibition rate: 22.40%
[10]; dose 4 μM
  invasion inhibition rate: 42.42%
[10]; dose 16 μM
  invasion inhibition rate: 67.51%
[11]; dose 1 μM
  invasion inhibition rate: 23.10%
[11]; dose 4 μM
  invasion inhibition rate: 46.71%
[11]; dose 16 μM
  invasion inhibition rate: 67.72%
[12]; dose 1 μM
  invasion inhibition rate: 22.79%
[12]; dose 4 μM
  invasion inhibition rate: 47.34%
[12]; dose 16 μM
  invasion inhibition rate: 74.40%
[13]; dose 1 μM
  invasion inhibition rate: 34.22%
[13]; dose 4 μM
  invasion inhibition rate: 56.11%
[13]; dose 16 μM
  invasion inhibition rate: 65.24%
[14]; dose 1 μM
  invasion inhibition rate: 38.40%
[14]; dose 4 μM
  invasion inhibition rate: 58.36%
[14]; dose 16 μM
  invasion inhibition rate: 67.62%
[15]; dose 1 μM
  invasion inhibition rate: 24.91%
[15]; dose 4 μM
  invasion inhibition rate: 46.73%
[15]; dose 16 μM
  invasion inhibition rate: 71.64%
[16]; dose 1 μM
  invasion inhibition rate: 36.25%
[16]; dose 4 μM
  invasion inhibition rate: 57.19%
[16]; dose 16 μM
  invasion inhibition rate: 71.36%

## MERAGVPGFSPRRSSVEAKMQSTSCSVRKSSTVTAWPAVVLLLSWGQRDEE-OH [HMMW-VI]
[1]; dose 1 μM
  migration inhibition rate: 26.64%
[1]; dose 4 μM
  migration inhibition rate: 51.45%
[1]; dose 16 μM
  migration inhibition rate: 72.80%
[2]; dose 1 μM
  migration inhibition rate: 21.76%
[2]; dose 4 μM
  migration inhibition rate: 40.21%
[2]; dose 16 μM
  migration inhibition rate: 66.32%
[3]; dose 1 μM
  migration inhibition rate: 19.81%
[3]; dose 4 μM
  migration inhibition rate: 52.03%
[3]; dose 16 μM
  migration inhibition rate: 70.91%
[4]; dose 1 μM
  migration inhibition rate: 16.69%
[4]; dose 4 μM
  migration inhibition rate: 42.81%
[4]; dose 16 μM
  migration inhibition rate: 71.04%
[5]; dose 1 μM
  migration inhibition rate: 32.00%
[5]; dose 4 μM
  migration inhibition rate: 51.90%
[5]; dose 16 μM
  migration inhibition rate: 70.46%
[6]; dose 1 μM
  migration inhibition rate: 17.32%
[6]; dose 4 μM
  migration inhibition rate: 40.38%
[6]; dose 16 μM
  migration inhibition rate: 72.47%
[7]; dose 1 μM
  migration inhibition rate: 27.06%
[7]; dose 4 μM
  migration inhibition rate: 50.34%
[7]; dose 16 μM
  migration inhibition rate: 74.38%
[8]; dose 1 μM
  migration inhibition rate: 33.19%
[8]; dose 4 μM
  migration inhibition rate: 55.17%
[8]; dose 16 μM
  migration inhibition rate: 70.23%
[9]; dose 1 μM
  invasion inhibition rate: 23.42%
[9]; dose 4 μM
  invasion inhibition rate: 54.19%
[9]; dose 16 μM
  invasion inhibition rate: 63.35%
[10]; dose 1 μM
  invasion inhibition rate: 22.25%
[10]; dose 4 μM
  invasion inhibition rate: 42.39%
[10]; dose 16 μM
  invasion inhibition rate: 67.47%
[11]; dose 1 μM
  invasion inhibition rate: 23.29%
[11]; dose 4 μM
  invasion inhibition rate: 46.63%
[11]; dose 16 μM
  invasion inhibition rate: 67.58%
[12]; dose 1 μM
  invasion inhibition rate: 22.83%
[12]; dose 4 μM
  invasion inhibition rate: 47.82%
[12]; dose 16 μM
  invasion inhibition rate: 74.16%
[13]; dose 1 μM
  invasion inhibition rate: 34.15%
[13]; dose 4 μM
  invasion inhibition rate: 56.32%
[13]; dose 16 μM
  invasion inhibition rate: 65.35%
[14]; dose 1 μM
  invasion inhibition rate: 38.15%
[14]; dose 4 μM
  invasion inhibition rate: 58.28%
[14]; dose 16 μM
  invasion inhibition rate: 67.51%
[15]; dose 1 μM
  invasion inhibition rate: 24.83%
[15]; dose 4 μM
  invasion inhibition rate: 46.57%
[15]; dose 16 μM
  invasion inhibition rate: 71.43%
[16]; dose 1 μM
  invasion inhibition rate: 36.83%
[16]; dose 4 μM
  invasion inhibition rate: 57.35%
[16]; dose 16 μM
  invasion inhibition rate: 71.16%
